Values quoted from earlier work in patent US20210213129A1, “NON-PSYCHOACTIVE CANNABINOIDS AS ADJUVANTS TO ENHANCE MUCOSAL IMMUNITY” (Immugen Pharma LLC, priority 2014, published 2021).

Assays:
[1] = test system: virgin and GC B cells
[2] = test system: B-cells; settings: cultured B-cells, co-stimulation with IL-4 and anti-CD40
[3] = test system: macrophages; settings: macrophages activated by LPS or TMEV
[4] = test system: B cells; settings: selective CB1 antagonist added
[5] = test system: T cells; settings: T cells stimulated by allogeneic dendritic cells or anti-CD3/anti-CD28
[6] = test system: T cells; settings: mixed lymphocyte reaction and highly purified T cells
[7] = test system: GATA3; IL12Rβ2; settings: mice, after Legionella challenge

CCCCCCC(C)(C)c1ccc([C@@H]2C[C@H](O)CC[C@H]2CCCO)c(O)c1 [CP55940]
proliferation of B-cell subsets ([1]; in the absence of CD40 MoAbs): incapable of inducing any proliferation
increased IgE expression [2]: 40-60%

CCCC(C)(C)c1ccc2c(c1)OC(C)(C)[C@@H]1CC=C(C)C[C@@H]21 [JWH-133]
IL-12p40 [3]: downregulated

Cc1c(C(=O)NN2CCCCC2)nn(-c2ccc(Cl)cc2Cl)c1-c1ccc(Cl)cc1 [SR141716A]
block of CB2 receptor mRNA expression and of the B-cell enhancing effects of the drug [4]: did not block

Cc1ccc(Cn2nc(C(=O)NC3C4(C)CCC(C4)C3(C)C)cc2-c2ccc(Cl)c(C)c2)cc1 (centres unmarked) [SR 144528A]
proliferative response of virgin and GC B cells by CP55,940 ([1]; selective CB2 receptor antagonist against agonist CP55,940): inhibited

CCCCCc1cc(O)c2c(c1)OC(C)(C)[C@@H]1CCC(C)=C[C@@H]21 [THC, tetrahydrocannabinol]
IL-4, % of diluent control levels ([5]; of diluent control levels): 105±11%
decrease of INF-γ ([5]; p<0.05): 51±18%
Th1 cytokines Il-2, IFN-γ and Il-12 ([6]; CB1 mediated): downregulation
IL-4 and Il-5 ([6]; CB2 mediated): upregulation
TH2 biasing factor GATA3 ([7]; CB2 mechanism): upregulation
IL12Rβ2, a marker of TH1 polarization ([7]; mediated by CB1 receptor): downregulation
